# Measured values taken from ChEMBL document CHEMBL1201862, “PubChem BioAssay data set” (2004).
# Active and inactive are the calls of the source.
# What was measured:
# [1] = target: T1, Neuropeptides B/W receptor type 1 (Homo sapiens, UniProt P48145); experiment: Fluorescence-based dose response cell-based high throughput screening assay to identify antagonists of the G-protein coupled receptor 7 (GPR7). [Related pubchem assays: 1952 (Screening assay (GPR7 antagonists).), 1880 (Summary AID.)]; type: functional
# T1 sequence (P48145 whole entry): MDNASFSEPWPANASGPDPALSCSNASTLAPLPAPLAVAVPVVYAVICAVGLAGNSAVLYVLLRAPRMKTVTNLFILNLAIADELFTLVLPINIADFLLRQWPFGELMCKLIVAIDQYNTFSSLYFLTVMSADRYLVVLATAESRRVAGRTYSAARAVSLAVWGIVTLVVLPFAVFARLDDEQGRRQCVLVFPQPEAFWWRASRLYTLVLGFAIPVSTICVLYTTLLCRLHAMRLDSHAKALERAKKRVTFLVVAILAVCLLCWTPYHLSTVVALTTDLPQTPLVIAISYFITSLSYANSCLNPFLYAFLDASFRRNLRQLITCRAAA
# [2] = target: Melanin-concentrating hormone receptor 1 (Homo sapiens, UniProt Q99705); experiment: Fluorescence-based counterscreen for antagonists of the G-protein coupled receptor 7 (GPR7): cell-based high throughput dose response assay to identify antagonists of the melanin-concentrating hormone receptor 1 (MCHR1).; type: functional
# Melanin-concentrating hormone receptor 1, sequence (Q99705 whole entry): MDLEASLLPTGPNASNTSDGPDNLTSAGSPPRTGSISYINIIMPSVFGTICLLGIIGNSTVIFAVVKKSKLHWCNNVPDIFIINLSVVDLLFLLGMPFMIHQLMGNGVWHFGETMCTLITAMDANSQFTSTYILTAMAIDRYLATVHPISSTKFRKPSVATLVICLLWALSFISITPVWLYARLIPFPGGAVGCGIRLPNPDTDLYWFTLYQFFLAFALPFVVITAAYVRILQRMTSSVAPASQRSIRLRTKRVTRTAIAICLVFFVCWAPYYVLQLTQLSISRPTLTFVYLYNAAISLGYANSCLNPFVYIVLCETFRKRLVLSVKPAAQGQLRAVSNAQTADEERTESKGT
# [3] = target: T2, Heat shock factor protein 1 (Mus musculus, UniProt P38532); experiment: enhancement of HSF1-driven luciferase signal – cell-based, NIH3T3, luminescence, dose retest, confirmation (AID 435004); type: functional;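 further: stress induced by proteasome inhibitor MG132 added 30 min after compound; luciferase reporter driven by HSF1 response element in NIH3T3 cells; actives raise luminescence as potentiators of the MG132 stress response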
# T2 sequence (P38532 whole entry): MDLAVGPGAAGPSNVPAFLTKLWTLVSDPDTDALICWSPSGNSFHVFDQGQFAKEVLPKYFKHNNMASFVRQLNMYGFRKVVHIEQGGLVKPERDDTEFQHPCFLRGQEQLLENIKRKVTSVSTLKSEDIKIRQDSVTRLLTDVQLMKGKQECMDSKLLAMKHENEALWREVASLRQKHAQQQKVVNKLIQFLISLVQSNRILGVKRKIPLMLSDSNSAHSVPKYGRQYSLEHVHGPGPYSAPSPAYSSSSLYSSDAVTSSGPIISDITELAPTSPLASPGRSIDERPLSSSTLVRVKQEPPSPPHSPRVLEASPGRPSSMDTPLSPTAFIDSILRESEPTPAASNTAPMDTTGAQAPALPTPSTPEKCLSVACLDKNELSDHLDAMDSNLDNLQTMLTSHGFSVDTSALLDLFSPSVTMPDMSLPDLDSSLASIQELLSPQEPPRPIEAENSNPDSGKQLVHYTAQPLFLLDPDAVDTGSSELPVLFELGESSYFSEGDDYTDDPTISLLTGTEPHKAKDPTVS
# [4] = Counterscreen for IDE inhibitors: Luminescence-based cell-based high throughput dose response assay to identify compounds that are cytotoxic to HEK cells. [Related pubchem assays: 434962 (Primary screen (IDE inhibitors in singlicate)), 449730 (Counterscreen (Cytotoxicity in triplicate)), 435028 (Confirmation (IDE inhibitors in triplicate)) …; type: functional; details: HEK293
# [5] = viability of PTEN-deleted HCT116 cells – cell-based, HCT116 PTEN knockout, dose response (AID 1047); type: functional;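 further: HCT116 colon tumor cells with PTEN knocked out; cells exposed to compound for 60 hours before readout; potency for loss of cell viability measured by luminescence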
# Insulin-degrading enzyme = target: T3, Insulin-degrading enzyme (Homo sapiens, UniProt P14735); experiment: Dose Response: Fluorescence polarization-based cell-based high throughput dose response assay for inhibitors of insulin-degrading enzyme (IDE). [Related pubchem assays: 434962 (Primary screen (IDE inhibitors in singlicate)), 449730 (Counterscreen (Cytotoxicity in triplicate)), 435028 (Confirmation (IDE inhibitors in triplicate)), 434984 (Summary …; type: functional
# T3 sequence (P14735 whole entry): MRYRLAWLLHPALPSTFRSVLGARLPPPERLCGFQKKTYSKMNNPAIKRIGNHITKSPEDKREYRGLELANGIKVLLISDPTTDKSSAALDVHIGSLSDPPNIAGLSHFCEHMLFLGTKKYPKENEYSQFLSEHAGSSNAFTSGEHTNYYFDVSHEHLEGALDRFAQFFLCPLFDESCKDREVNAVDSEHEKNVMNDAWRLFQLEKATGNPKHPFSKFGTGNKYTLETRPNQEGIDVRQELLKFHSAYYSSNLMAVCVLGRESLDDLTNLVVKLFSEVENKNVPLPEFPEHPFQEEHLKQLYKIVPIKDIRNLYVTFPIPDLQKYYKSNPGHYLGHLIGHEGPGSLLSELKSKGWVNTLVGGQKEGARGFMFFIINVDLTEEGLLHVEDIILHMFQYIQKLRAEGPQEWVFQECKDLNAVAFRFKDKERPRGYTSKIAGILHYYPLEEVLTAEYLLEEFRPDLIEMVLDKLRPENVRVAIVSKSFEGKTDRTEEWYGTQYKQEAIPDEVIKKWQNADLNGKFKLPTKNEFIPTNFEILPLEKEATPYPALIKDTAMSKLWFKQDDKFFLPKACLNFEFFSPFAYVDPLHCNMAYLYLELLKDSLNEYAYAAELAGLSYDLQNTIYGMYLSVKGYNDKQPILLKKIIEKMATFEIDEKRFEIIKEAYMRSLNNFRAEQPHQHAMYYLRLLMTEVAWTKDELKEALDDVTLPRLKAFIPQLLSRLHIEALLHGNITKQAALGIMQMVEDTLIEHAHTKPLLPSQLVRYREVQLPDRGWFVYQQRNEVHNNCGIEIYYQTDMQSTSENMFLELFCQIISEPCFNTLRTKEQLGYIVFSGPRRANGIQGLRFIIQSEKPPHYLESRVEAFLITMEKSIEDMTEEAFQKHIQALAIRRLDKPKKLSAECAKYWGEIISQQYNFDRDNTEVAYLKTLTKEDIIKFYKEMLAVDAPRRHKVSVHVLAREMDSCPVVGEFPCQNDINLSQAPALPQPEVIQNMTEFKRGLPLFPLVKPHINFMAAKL
# [6] = viability of HCT116 lacking mutant beta-catenin – cell-based, human colon tumor, dose response (AID 1045); type: functional;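 further: HCT116 colon tumor cells with beta catenin knocked out; cells exposed to compound for 60 hours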
# Cytochrome P450 2D6 = Cytochrome P450 2D6 (Homo sapiens, UniProt P10635); experiment: qHTS Assay for Inhibitors and Substrates of Cytochrome P450 2D6. [Related pubchem assays: 410 ]; type: ADME; details: read-out: Potency
# Cytochrome P450 2D6, sequence (P10635 whole entry): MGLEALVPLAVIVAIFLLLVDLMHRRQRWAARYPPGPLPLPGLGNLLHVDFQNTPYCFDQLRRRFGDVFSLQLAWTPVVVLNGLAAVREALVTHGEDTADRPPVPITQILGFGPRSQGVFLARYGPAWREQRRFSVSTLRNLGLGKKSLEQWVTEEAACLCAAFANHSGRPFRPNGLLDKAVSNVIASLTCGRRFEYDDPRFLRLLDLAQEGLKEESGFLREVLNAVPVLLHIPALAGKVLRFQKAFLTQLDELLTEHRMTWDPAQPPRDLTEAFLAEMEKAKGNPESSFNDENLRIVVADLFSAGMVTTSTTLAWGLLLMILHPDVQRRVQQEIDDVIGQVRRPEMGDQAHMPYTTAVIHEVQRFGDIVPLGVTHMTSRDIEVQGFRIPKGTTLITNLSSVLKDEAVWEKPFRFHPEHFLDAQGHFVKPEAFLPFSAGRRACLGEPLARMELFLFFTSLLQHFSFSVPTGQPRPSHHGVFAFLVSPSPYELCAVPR
# [7] = target: T4, Tyrosine-protein phosphatase non-receptor type 7 (Homo sapiens, UniProt P35236); type: functional
# T4 sequence (P35236 whole entry): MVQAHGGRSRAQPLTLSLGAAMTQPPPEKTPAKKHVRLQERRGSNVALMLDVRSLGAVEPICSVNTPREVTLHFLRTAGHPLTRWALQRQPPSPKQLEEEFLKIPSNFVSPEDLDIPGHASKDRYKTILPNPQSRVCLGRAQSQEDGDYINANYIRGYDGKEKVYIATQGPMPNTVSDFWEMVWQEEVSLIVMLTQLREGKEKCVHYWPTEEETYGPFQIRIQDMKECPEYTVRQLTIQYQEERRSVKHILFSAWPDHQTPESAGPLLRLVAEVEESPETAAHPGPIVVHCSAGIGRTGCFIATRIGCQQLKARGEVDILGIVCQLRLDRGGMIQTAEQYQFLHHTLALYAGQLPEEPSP
# [8] = target: Glyceraldehyde-3-phosphate dehydrogenase (Homo sapiens, UniProt P04406)
# Glyceraldehyde-3-phosphate dehydrogenase, sequence (P04406 whole entry): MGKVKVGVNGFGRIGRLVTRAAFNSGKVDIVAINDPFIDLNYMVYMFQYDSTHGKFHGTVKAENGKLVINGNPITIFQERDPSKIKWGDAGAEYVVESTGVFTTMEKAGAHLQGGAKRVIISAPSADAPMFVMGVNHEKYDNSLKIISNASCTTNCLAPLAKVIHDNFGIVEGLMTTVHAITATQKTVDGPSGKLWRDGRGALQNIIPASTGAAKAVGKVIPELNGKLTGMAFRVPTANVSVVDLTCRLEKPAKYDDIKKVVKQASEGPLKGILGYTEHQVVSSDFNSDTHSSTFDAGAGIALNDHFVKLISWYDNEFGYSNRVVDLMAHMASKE
# [9] = target: T5, Dual specificity protein phosphatase 6 (Rattus norvegicus, UniProt Q64346)
# T5 sequence (Q64346 whole entry): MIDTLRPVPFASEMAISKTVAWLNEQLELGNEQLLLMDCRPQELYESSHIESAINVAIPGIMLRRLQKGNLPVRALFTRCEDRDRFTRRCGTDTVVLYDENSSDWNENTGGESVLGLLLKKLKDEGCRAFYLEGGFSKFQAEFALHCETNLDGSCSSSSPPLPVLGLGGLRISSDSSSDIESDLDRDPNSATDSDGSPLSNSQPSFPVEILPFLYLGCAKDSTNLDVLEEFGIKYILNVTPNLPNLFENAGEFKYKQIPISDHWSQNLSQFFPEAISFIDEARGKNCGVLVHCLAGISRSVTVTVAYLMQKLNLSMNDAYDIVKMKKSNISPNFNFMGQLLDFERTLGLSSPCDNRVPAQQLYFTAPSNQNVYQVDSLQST
# [10] = target: T5, Dual specificity protein phosphatase 6; type: functional
# [11] = target: Voltage-gated N-type calcium channel alpha-1B subunit/Amyloid beta A4 precursor protein-binding family A member 1 (Homo sapiens, UniProt Q00975+Q02410); experiment: disruptors of Mint-PDZ/N-type channel peptide interaction – biochemical, HTRF, set 2, SAR follow-up (AID 434980); type: functional
# [12] = target: T4, Tyrosine-protein phosphatase non-receptor type 7; experiment: redox-active compounds inhibiting HePTP phosphatase – biochemical, fluorescence, mechanism study (AID 2068); type: functional
# [13] = target: Eukaryotic translation initiation factor 4H (Homo sapiens, UniProt Q15056); experiment: eIF4H binding inhibition – biochemical, uHTS, fluorescence polarization, translation initiation inhibitor project, primary screen (AID 2012)
# [14] = target: Polyadenylate-binding protein 1 (Homo sapiens, UniProt P11940); experiment: blockers of PABP interaction with poly(A) – biochemical, fluorescence polarization, […] (AID 2014)
# Polyadenylate-binding protein 1, sequence (P11940 whole entry): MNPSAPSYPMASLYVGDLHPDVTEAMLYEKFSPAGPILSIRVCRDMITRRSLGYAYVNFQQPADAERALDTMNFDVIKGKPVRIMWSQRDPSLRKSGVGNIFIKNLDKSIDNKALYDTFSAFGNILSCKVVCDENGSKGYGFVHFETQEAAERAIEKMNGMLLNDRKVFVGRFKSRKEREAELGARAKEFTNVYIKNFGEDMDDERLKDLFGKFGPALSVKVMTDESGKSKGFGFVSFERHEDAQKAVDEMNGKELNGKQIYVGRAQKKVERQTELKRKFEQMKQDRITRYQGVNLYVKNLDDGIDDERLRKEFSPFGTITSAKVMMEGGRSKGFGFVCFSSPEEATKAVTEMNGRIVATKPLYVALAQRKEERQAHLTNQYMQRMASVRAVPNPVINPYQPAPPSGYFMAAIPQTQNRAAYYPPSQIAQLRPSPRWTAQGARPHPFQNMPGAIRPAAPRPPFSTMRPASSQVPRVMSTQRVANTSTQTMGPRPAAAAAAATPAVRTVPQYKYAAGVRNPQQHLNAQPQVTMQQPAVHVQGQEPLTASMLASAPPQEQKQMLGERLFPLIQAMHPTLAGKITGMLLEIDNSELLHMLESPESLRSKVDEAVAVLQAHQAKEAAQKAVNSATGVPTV
# [15] = NIH-3T3 fibroblast cytotoxicity, dose response, cytotoxicity control, cell-based, fluorescence, Alamar Blue, secondary assay (AID 2327); type: functional;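 further: NIH-3T3 mouse fibroblasts cultured with fluconazole at 8 µg/mL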
# [16] = fluconazole-exposed Candida albicans growth modulators – fluorescence, retest, confirmation (AID 2467); type: functional, cell-based
# Protein skinhead-1 = target: T6, Protein skinhead-1 (Caenorhabditis elegans, UniProt P34707); type: functional
# T6 sequence (P34707 whole entry): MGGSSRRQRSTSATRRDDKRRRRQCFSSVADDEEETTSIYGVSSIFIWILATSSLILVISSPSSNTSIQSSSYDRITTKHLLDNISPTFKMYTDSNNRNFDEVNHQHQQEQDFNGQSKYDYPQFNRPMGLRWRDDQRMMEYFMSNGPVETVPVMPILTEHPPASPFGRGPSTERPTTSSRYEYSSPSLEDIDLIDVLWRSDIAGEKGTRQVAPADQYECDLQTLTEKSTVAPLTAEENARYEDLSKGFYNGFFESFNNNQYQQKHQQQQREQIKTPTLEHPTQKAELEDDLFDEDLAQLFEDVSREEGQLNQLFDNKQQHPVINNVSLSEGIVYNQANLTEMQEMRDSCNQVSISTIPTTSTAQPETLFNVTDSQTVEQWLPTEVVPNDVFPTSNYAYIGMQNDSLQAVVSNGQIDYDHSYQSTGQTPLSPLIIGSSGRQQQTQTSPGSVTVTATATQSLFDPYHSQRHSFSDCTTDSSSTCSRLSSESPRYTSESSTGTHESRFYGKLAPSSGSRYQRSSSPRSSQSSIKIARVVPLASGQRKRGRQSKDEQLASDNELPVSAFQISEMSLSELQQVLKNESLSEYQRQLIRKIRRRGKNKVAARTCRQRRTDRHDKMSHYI
# [17] = target: Alkaline phosphatase, placental type (Homo sapiens, UniProt P05187); experiment: human placental alkaline phosphatase inhibition – biochemical, luminescence, confirmation (AID 1512); type: functional
# Alkaline phosphatase, placental type, sequence (P05187 whole entry): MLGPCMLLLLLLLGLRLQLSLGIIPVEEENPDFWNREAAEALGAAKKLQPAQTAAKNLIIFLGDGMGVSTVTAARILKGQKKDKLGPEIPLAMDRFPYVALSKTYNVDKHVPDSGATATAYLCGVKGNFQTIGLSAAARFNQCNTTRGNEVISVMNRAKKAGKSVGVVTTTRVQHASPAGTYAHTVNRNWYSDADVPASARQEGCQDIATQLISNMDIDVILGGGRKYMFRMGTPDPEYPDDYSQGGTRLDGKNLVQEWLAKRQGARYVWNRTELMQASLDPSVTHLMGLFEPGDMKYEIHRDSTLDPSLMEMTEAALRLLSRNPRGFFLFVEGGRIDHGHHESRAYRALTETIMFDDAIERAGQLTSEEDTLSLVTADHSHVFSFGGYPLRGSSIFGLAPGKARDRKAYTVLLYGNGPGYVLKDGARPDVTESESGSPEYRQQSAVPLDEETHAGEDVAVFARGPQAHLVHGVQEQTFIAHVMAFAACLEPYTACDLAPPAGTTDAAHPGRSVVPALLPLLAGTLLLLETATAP
# [18] = target: T7, Alkaline phosphatase, tissue-nonspecific isozyme (Homo sapiens, UniProt P05186); experiment: potency against alkaline phosphatase TNAP – biochemical, luminescent, dose response, SAR follow-up (AID 1056)
# T7 sequence (P05186 whole entry): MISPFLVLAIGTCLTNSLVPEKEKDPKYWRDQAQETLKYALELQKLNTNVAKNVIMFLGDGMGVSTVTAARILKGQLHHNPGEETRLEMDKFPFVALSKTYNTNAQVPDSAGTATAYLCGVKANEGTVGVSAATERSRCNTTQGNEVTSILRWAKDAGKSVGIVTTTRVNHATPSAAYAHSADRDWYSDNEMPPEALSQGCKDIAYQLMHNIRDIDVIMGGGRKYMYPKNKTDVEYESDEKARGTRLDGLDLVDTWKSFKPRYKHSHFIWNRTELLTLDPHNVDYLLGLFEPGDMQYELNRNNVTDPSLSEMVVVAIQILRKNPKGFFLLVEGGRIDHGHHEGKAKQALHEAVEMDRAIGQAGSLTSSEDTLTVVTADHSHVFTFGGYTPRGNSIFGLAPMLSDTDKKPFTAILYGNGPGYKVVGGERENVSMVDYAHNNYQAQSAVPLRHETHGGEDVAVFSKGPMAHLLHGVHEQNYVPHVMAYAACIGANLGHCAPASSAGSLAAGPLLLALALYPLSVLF
smiles,measurement,setting,value
Cc1ccccc1CC1(CO)CCCN(C(=O)c2ccccc2Cl)C1 (centres undefined),IC50,[1],> 43.8 µM (not active)
same,IC50,[2],33.3 µM (not active)
same,EC50,[3],> 260 µM (inactive)
O=C1NC(=S)N(C(=O)c2ccc(F)cc2)/C1=C/c1ccccc1,IC50,[4],22.4 µM (not active)
same,EC50,[5],40.8 µM (active)
same,IC50,Insulin-degrading enzyme,22.2 µM (not active)
same,EC50,[6],54.1 µM (active)
Cc1nc(/N=N\c2cc(S(=O)(=O)O)c3cc([N+](=O)[O-])cc(S(=O)(=O)O)c3c2)c(COP(=O)(O)O)c(C=O)c1O,AC50,Cytochrome P450 2D6,20 µM (inconclusive)
C[C@@H](C(N)=O)n1c(=O)n(Cc2ccccc2)c(=O)n(-c2ccccc2)c1=O,IC50,[7],> 100 µM (not active)
same,IC50,[8],> 100 µM (not active)
same,IC50,[9],> 100 µM (inactive)
same,IC50,[10],> 100 µM (inactive)
O[C@@H]1CC[C@H]2Cc3ccccc3N=C21,AC50,Cytochrome P450 2D6,20 µM (inconclusive)
O=C(Nc1ncc(-c2ccccc2)s1)c1cc(-c2ccco2)nc2ccccc12,IC50,[11],18 µM (active)
COc1cc(C(=S)NCc2ccc(F)c(C(F)(F)F)c2)ccc1O,IC50,[12],1.65 µM (active)
same,IC50,[10],> 100 µM (inactive)
CN1/C(=C/c2cccc[n+]2CCO)Sc2ccccc21,IC50,[13],> 100 µM (inactive)
same,IC50,[14],1.87 µM (active)
S=C(Nc1ccccc1)Nc1nc2ccccc2n1CCOc1ccccc1,EC50,[15],8.47 µM (inconclusive)
same,IC50,[4],15.9 µM (not active)
same,EC50,[16],2.08 µM (active)
same,EC50,[5],17.4 µM (active)
same,IC50,Insulin-degrading enzyme,> 55.9 µM (not active)
same,EC50,[6],15.9 µM (active)
same,IC50,Protein skinhead-1,> 100 µM (inactive)
CCn1c(SCC(=O)c2ccc(O)c(O)c2)nnc1-c1ccc(OC)cc1,IC50,[17],8.31 µM (inactive)
same,IC50,[18],> 100 µM (inactive)
N=c1c(C(=O)NC2CCCCC2)cc2c(=O)n3ccccc3nc2n1CC1CCCO1 (centres undefined),IC50,[1],> 43.8 µM (not active)
same,IC50,[2],> 43.8 µM (not active)
